Results reported in publication PMC13091788 (NPJ Aging, 2026).

Tests used:
[1] = tested on: MITOL and Tom20 mRNA in C2C12 cells; assay: qRT-PCR analysis of C2C12 cells; assay type: cell-based, mouse; conditions: C2C12, 5 μM or 10 μM
Description: (§1) Murine myoblast C2C12 cells were used for various cellular experiments in this study. Two different sources of C2C12 cells were used depending on the experiment: C2C12 cells obtained from RIKEN BRC (RCB0987) were used for gene expression, mtDNA quantification, and mitochondrial morphology analysis; C2C12 cells from ATCC (CRL-1772) were used for OCR analysis. Cells were cultured in Dulbecco’s Modified Eagle Medium (DMEM; Sigma-Aldrich or Nacalai Tesque), supplemented with 10% FBS and 1% penicillin–streptomycin. Cells were maintained in a humidified incubator at 37°C with 5% CO2.
For cellular experiments, berberine or quinoid-type berberrubine (Q-BRB) was dissolved in DMSO, and berberrubine acetic acid adduct (AcA-BRB) was dissolved in distilled H2O. Each compound was diluted in culture medium to the indicated final concentrations.
Total RNA was extracted from C2C12 cells using an RNA extraction kit (RNeasy Mini Kit, Qiagen). After washing with PBS, cells were collected by trypsinization and centrifugation at 500 × g for 5 min, and the pellet was lysed according to the manufacturer’s instructions. The extracted RNA was reverse-transcribed into cDNA using a reverse transcription kit (ReverTra Ace, TOYOBO). Quantitative real-time PCR was performed using a qPCR master mix (KAPA SYBR FAST qPCR Master Mix (2X) Kit, KAPABIOSYSTEMS) and a thermal cycler (StepOnePlus, Applied Biosystems). Gene expression levels were normalized to GAPDH. Primer sets used for qRT-PCR are listed in Supplementary Table 1.

C2C12 cells = assay: Quantification of mitochondrial DNA (mtDNA/nDNA ratio); assay type: cell-based, mouse; conditions: C2C12, 10 μM
Description: as §1
To generate mMITOL-knockout C2C12 cells, CRISPR-Cas9 vectors were constructed. Single-guide RNAs (sgRNAs) targeting the mouse MITOL gene were designed using the online tool CRISPOR (http://crispor.org). The oligonucleotide pair corresponding to the mMITOL guide RNA (gRNA sequence, 5′-[…]-3′) was annealed and ligated into the PX459 vector (48139, Addgene). C2C12 cells were transfected using Lipofectamine 3000 (Thermo Fisher Scientific), and knockout clones were selected by serial dilution.
To assess mitochondrial DNA (mtDNA) content, the mtDNA/nuclear DNA (nDNA) ratio was determined by extracting DNA from C2C12 cells using the NucleoSpin Tissue Kit (Takara Bio), followed by real-time quantitative PCR analysis with specific primer sets for mtDNA (16S rRNA or ND1) and nDNA (Hexokinase 2; HK2) (Supplementary Table 2). Real-time quantitative PCR was performed using TB Green Premix Ex Taq II (Takara Bio) and a Thermal Cycler Dice Real-Time System (Takara Bio). The analysis of mtDNA/nDNA ratios was conducted using the ΔΔCt method as previously described.

C2C12 myoblasts = assay: Oxygen consumption analysis of C2C12 cells (Seahorse); assay type: cell-based, mouse; conditions: C2C12, 30 μM, 24 h, vs solvent control
Description: as §1
To generate mMITOL-knockout C2C12 cells, CRISPR-Cas9 vectors were constructed. […]
The oxygen consumption rate (OCR) of C2C12 myoblasts and H9c2 cardiomyocytes were measured using a Seahorse XFe24 Analyzer and the Seahorse XF Cell Mito Stress Test Kit (Agilent Technologies), as well as a Seahorse XF HS Mini Analyzer and the Seahorse XFp Cell Mito Stress Test Kit (Agilent Technologies), according to the manufacturer’s protocol. […] The assay was performed at 37 °C, and OCR was measured at baseline and after sequential injections of the following compounds: oligomycin (Oligo; 1 μM), FCCP (0.5 μM), and a mixture of rotenone and antimycin A (Rot/Anti; 0.5 μM each). […] Non-mitochondrial respiration was defined as the OCR measured after the injection of rotenone and antimycin A.

[2] = Hepatic microsomal stability assay, human; assay type: in vitro ADME; conditions: CLint, 1 μM, 0.2 mg/mL microsomes, NADPH, 30 min
Description: (§2) Disappearance of the parent compound over time was measured by using the amount of drug at time zero as a reference. After 5 min of preincubation, 1 mM NADPH (final concentration; the same applies to the following) was added to a mixture containing 1 μM of the compound, 0.2 mg/mL of human or mouse liver microsomes (Sekisui XenoTech), 1 mM EDTA and 0.1 M phosphate buffer (pH 7.4). The mixture solution was incubated at 37 °C for 30 min with rotation at 60 rpm. An aliquot of 50 μL of the incubation mixture was added to 250 μL of chilled acetonitrile/internal standard (IS, methyltestosterone). After centrifugation at 3150 × g for 15 min at 4 °C, the supernatants were analyzed by LC-MS/MS. Hepatic microsomal stability (mL/min/kg, CLint) was calculated according to a previous report, using 48.8 (human) or 45.4 (mouse) mg MS protein/g liver and 25.7 (human) or 87.5 (mouse) g liver/kg body weight as scaling factors. Two technical replicates were performed.

[3] = Hepatic microsomal stability assay, mouse; assay type: in vitro ADME; conditions: CLint, 1 μM, 0.2 mg/mL microsomes, NADPH, 30 min
Description: as §2

[4] = Unbound fraction in human plasma (equilibrium dialysis); assay type: in vitro ADME; conditions: pH 7.4, equilibrium dialysis 6 h, 37 °C, read-out: Plasma protein binding (fraction unbound) human (pH7.4)
Description: An equilibrium dialysis apparatus was used to determine the unbound fraction for each compound in human or mouse plasma. High Throughput Dialysis Model HTD96b and Dialysis Membrane Strips MWCO 12–14 kDa (HTDialysis) were used. Plasma was spiked with the test compound (1 μM), and 150 μL aliquots were loaded into the apparatus and dialyzed versus 150 μL of 0.1 M phosphate buffer (pH 7.4) at 37 °C for 6 h by rotation at 80 rpm. The unbound fraction was calculated as the ratio of receiver side (buffer) to donor side (plasma) concentrations. Two technical replicates were performed.

| Compound | mRNA levels of MITOL and Tom20 [1] | mitochondrial abundance (mtDNA 16S rRNA or ND1 / nuclear HK2) (C2C12 cells) | OCR: basal respiration, ATP synthesis-linked respiration and maximal respiration (C2C12 myoblasts) | Liver microsomal metabolic stability human (pH7.4) [2] [mL/min/kg] | Liver microsomal metabolic stability mouse (pH7.4) [3] [mL/min/kg] | fraction unbound at 6 h, 1 μM [4] |
| --- | --- | --- | --- | --- | --- | --- |
| COc1ccc2cc3n(cc-2c1=O)CCc1cc2c(cc1-3)OCO2 [Q-BRB, quinoid-type berberrubine] | increased | significantly increased | significantly increased | < 22.0 | 1839 | 0.359 |
| COc1ccc2cc3[n+](cc2c1O)CCc1cc2c(cc1-3)OCO2 [AcA-BRB, berberrubine acetic acid adduct] | increased | significantly increased | significantly increased | < 22.0 | 1794 | 0.374 |
